Where “and” joins values, the source holds several entries; their conditions need not be identical. Equal entries are not always repeated.
Legend:
Chi18 mRNA construct = assay: Size Exclusion Base Hydrolysis Degradation Assay, Chi18; format: biochemical, Trichoderma atroviride; details: for T0 R1 peak area at 250 nm: Chi18 0.1 mg/mL, 25 mM amino acid, 50 mM CAPS, T=0, replicate 1; for T2 Avg, peak area as percentage of T=0 / T2 R1 peak area at 250 nm / T10 Avg, peak area as percentage of T=0 / T10 R1 peak area at 250 nm / T24 Avg, peak area as percentage of T=0 / T24 R1 peak area at 250 nm / T0 Avg, peak area as percentage of T=0: Chi18, 25 mM amino acid; for T2 Avg, peak area as percentage of T=0 / T2 R1 peak area at 250 nm / T10 Avg, peak area as percentage of T=0 / T10 R1 peak area at 250 nm / T24 Avg, peak area as percentage of T=0 / T24 R1 peak area at 250 nm: 50 mM CAPS pH 11, room temperature; for T2 Avg, peak area as percentage of T=0 / T2 R1 peak area at 250 nm: 2 hrs; for T2 R1 peak area at 250 nm / T10 R1 peak area at 250 nm / T24 R1 peak area at 250 nm: replicate 1; for T10 Avg, peak area as percentage of T=0 / T10 R1 peak area at 250 nm: 10 hrs; for T24 Avg, peak area as percentage of T=0 / T24 R1 peak area at 250 nm: 24 hrs; for T0 Avg, peak area as percentage of T=0: T=0 (reference)
Experimental: Basic assay procedure: RNA samples were diluted to 1.0 mg/mL in DNAase/RNAase free water. Amino acids were dissolved in water to a stock solution of 100 mM and a solution of 500 mM CAPS pH 11 was used. The two mRNA constructs tested were FgenL and Chi18. Each individual sample volume was 50 μL. To determine the amount of 1 M NaOH needed to adjust the final pH to 11.0 after the addition of all sample components, the sample volume was increased 100 fold (5 mL), the volume of 1 M NaOH recorded and this value was translated back down to the 50 μL sample volume.
The mRNA and amino acid were allowed to incubate for one hour prior to the addition of CAPS pH 11. All steps of the assay were conducted at room temperature.
Degradation reaction: After the CAPS addition, the samples were injected onto the Waters H-Class UPLC system to record the first timepoint, T=O. This resulting chromatogram was processed by integrating the area of absorbance at 250 nm for the mRNA construct. Immediately following this timepoint, the pH was adjusted to 11. Subsequent time points (2 hrs, 10 hrs, and 24 hrs) recorded the Absorbance Units (peak area) at 250 nm as a percentage of the peak area determined at T=O. Integration of the chromatogram for subsequent timepoints was conducted by analyzing the area of absorbance at 250 nm contained within the same time window in which the peak eluted in T=0 for the 100% intact mRNA.

HEK-293T cell monolayer = format: cell-based
VSV G pseudotyped virus = test system: VSV G pseudotyped virus; parameters: species or system BALB/c mice; details: mouse

Structure (SMILES)	T0 R1 peak area at 250 nm (Chi18 mRNA construct)	T2 Avg, peak area as percentage of T=0 (Chi18 mRNA construct)	T2 R1 peak area at 250 nm (Chi18 mRNA construct)	T10 Avg, peak area as percentage of T=0 (Chi18 mRNA construct)	T10 R1 peak area at 250 nm (Chi18 mRNA construct)	T24 Avg, peak area as percentage of T=0 (Chi18 mRNA construct)	T24 R1 peak area at 250 nm (Chi18 mRNA construct)	T0 Avg, peak area as percentage of T=0 (Chi18 mRNA construct)	T0 R1 peak area at 250 nm (Chi18 mRNA construct; listed as Cys)	T2 R1 peak area at 250 nm (Chi18 mRNA construct; listed as Cys)	T2 Avg, peak area as percentage of T=0 (Chi18 mRNA construct; listed as Cys)	IVE of the Tris/Sucrose LNP formulation upon inclusion of glutamic acid (HEK-293T cell monolayer)	effect on in vitro expression (IVE) of the Tris/Sucrose LNP formulation (HEK-293T cell monolayer)	stabilization as measured by functional immunogenic response in vivo (VSV G pseudotyped virus)
NC(=O)C[C@H](N)C(=O)O [Asparagine]	25494	62.7%	12115	0.0%	0	0.0%	0	100.0%	–	–	–	–	–	–
N[C@@H](Cc1c[nH]cn1)C(=O)O [Histidine]	27170	152.8%	14612	2.8%	1391	0.0%	0	100.0%	–	–	–	–	–	–
CSCC[C@H](N)C(=O)O [Methionine]	17259	63.5%	8392	40.1%	6837	0.0%	0	100.0%	–	–	–	–	–	–
C[C@@H](O)[C@H](N)C(=O)O [Threonine]	39202	74.6%	28759	26.0%	10963	0.0%	0	100.0%	–	–	–	–	–	–
N[C@@H](CO)C(=O)O [Serine]	31778	150.4%	19639	0.0%	0	0.0%	0	100.0%	–	–	–	–	–	–
N[C@@H](CCC(=O)N[C@@H](CS)C(=O)NCC(=O)O)C(=O)O [Glutathione]	13157	48.7%	7747	0.0%	0	0.0%	0	100.0%	–	–	–	–	–	–
CC[C@H](C)[C@H](N)C(=O)O [Isoleucine]	15361	63.2%	7533	33.8%	4699	0.0%	0	100.0%	–	–	–	–	–	–
C[C@H](N)C(=O)O [Alanine]	19606	71.6%	13211	18.1%	2730	0.0%	0	100.0%	–	–	–	–	–	–
N[C@@H](Cc1c[nH]c2ccccc12)C(=O)O [Tryptophan]	8974	78.0%	7000	47.7%	3243	0.0%	0	100.0%	–	–	–	–	–	–
N[C@@H](CS)C(=O)O [Cysteine]	–	–	–	0.0%	0	0.0%	0	100.0%	39458 and 20358	25387 and 14715	60.4% and 61.4%	–	–	–
N[C@@H](CC(=O)O)C(=O)O [Aspartic acid]	11079	69.4%	7643	0.0%	0	0.0%	0	100.0%	–	–	–	–	–	–
NCC(=O)O [Glycine]	32571	69.6%	21950	0.0%	0	0.0%	0	100.0%	–	–	–	–	–	–
NC(=O)CC[C@H](N)C(=O)O [Glutamine]	25301	51.1%	10030	0.0%	0	0.0%	0	100.0%	–	–	–	–	–	–
N=C(N)NCCC[C@H](N)C(=O)O [Arginine]	20698	76.7%	15655	0.0%	0	0.0%	0	100.0%	–	–	–	–	–	–
NCCCC[C@H](N)C(=O)O [Lysine]	24122	0.0%	0	0.0%	0	0.0%	0	100.0%	–	–	–	–	–	–
CC(C)C[C@H](N)C(=O)O [Leucine]	43979	60.6%	23370	26.2%	10474	0.0%	0	100.0%	–	–	–	–	–	–
N[C@@H](Cc1ccc(O)cc1)C(=O)O [Tyrosine]	21493	90.9%	22110	56.8%	14946	37.6%	10375	100.0%	–	–	–	–	–	–
N[C@@H](Cc1ccccc1)C(=O)O [Phenylalanine]	30537	72.1%	22175	16.3%	3615	0.0%	0	100.0%	–	–	–	–	–	–
CC(C)[C@H](N)C(=O)O [Valine]	29804	56.7%	12369	0.0%	0	0.0%	0	100.0%	–	–	–	–	–	–
O=C(O)[C@@H]1C[C@@H](O)CN1 [Hydroxyproline]	13659	76.2%	8540	34.2%	3280	0.0%	0	100.0%	–	–	–	–	–	–
N[C@@H](CCC(=O)O)C(=O)O [Glutamic acid]	19221	92.8%	16514	151.2%	6324	–	0	100.0%	–	–	–	70%	improved	significant stabilization
O=C(O)[C@@H]1CCCN1 [Proline]	12033	72.0%	7330	28.5%	2712	0.0%	0	100.0%	–	–	–	–	–	–
